Data reported in ChEMBL document CHEMBL4622865, “Sulfonamide-based 4-anilinoquinoline derivatives as novel dual Aurora kinase (AURKA/B) inhibitors: Synthesis, biological evaluation and in silico insights” (Bioorg Med Chem, 2020).

Legend:
Aurora kinase B [1] = target: T1, Aurora kinase B (Homo sapiens, UniProt Q96GD4); experiment: Inhibition of human Aurora B using [H-LRRASLG] as substrate in presence of [gamma-33P]-ATP incubated for 2 hrs by hotspot kinase assay
Aurora kinase A = target: T2, Aurora kinase A (Homo sapiens, UniProt O14965); experiment: Inhibition of human Aurora A using [H-LRRASLG] as substrate in presence of [gamma-33P]-ATP incubated for 2 hrs by hotspot kinase assay
T2 sequence (O14965 whole entry): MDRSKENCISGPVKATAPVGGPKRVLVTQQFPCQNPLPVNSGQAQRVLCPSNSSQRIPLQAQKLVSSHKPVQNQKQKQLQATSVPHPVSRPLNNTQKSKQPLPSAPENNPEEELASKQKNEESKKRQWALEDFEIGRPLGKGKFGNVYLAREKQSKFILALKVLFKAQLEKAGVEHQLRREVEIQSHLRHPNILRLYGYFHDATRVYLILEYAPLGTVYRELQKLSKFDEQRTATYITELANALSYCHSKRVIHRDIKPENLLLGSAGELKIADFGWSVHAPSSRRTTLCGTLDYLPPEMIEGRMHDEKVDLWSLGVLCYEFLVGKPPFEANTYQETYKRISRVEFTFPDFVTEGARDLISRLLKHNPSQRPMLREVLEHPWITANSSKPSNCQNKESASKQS

UO-31 = experiment: Antitumor activity against human UO31 cells assessed as growth inhibition at 10-'5 M incubated for 48 hrs by SRB assay relative to control; type: functional
[2] = target: T3, Aurora kinase A (Homo sapiens) (UniProt O14965); experiment: Inhibition of human Aurora A using [H-LRRASLG] as substrate at 20 uM in presence of [gamma-33P]-ATP incubated for 2 hrs by hotspot kinase assay relative to control
T3 sequence (whole entry): T2 sequence (O14965 whole entry)

Aurora kinase B [3] = target: T1, Aurora kinase B; experiment: Inhibition of human Aurora B using [H-LRRASLG] as substrate at 20 uM in presence of [gamma-33P]-ATP incubated for 2 hrs by hotspot kinase assay relative to control
A498 = experiment: Antitumor activity against human A498 cells assessed as growth inhibition at 10-'5 M incubated for 48 hrs by SRB assay relative to control; type: functional
MCF7 = experiment: Antitumor activity against human MCF7 cells assessed as growth inhibition at 10-'5 M incubated for 48 hrs by SRB assay relative to control; type: functional
T47D = experiment: Antitumor activity against human T47D cells assessed as growth inhibition at 10-'5 M incubated for 48 hrs by SRB assay relative to control; type: functional
MOLT-4 = experiment: Antitumor activity against human MOLT4 cells assessed as growth inhibition at 10-'5 M incubated for 48 hrs by SRB assay relative to control; type: functional
Hs-578T = experiment: Antitumor activity against human Hs 578T cells assessed as growth inhibition at 10-'5 M incubated for 48 hrs by SRB assay relative to control; type: functional
KM12 = experiment: Antitumor activity against human KM12 cells assessed as growth inhibition at 10-'5 M incubated for 48 hrs by SRB assay relative to control; type: functional
CAKI-1 = experiment: Antitumor activity against human CAKI-1 cells assessed as growth inhibition at 10-'5 M incubated for 48 hrs by SRB assay relative to control; type: functional
UACC-62 = experiment: Antitumor activity against human UACC62 cells assessed as growth inhibition at 10-'5 M incubated for 48 hrs by SRB assay relative to control; type: functional
SNB-75 = experiment: Antitumor activity against human SNB75 cells assessed as growth inhibition at 10-'5 M incubated for 48 hrs by SRB assay relative to control; type: functional
MDA-MB-231 = experiment: Antitumor activity against human MDA-MB-231 cells assessed as growth inhibition at 10-'5 M incubated for 48 hrs by SRB assay relative to control; type: functional
SK-MEL-5 = experiment: Antitumor activity against human SK-MEL-5 cells assessed as growth inhibition at 10-'5 M incubated for 48 hrs by SRB assay relative to control; type: functional
HOP-62 = experiment: Antitumor activity against human HOP62 cells assessed as growth inhibition at 10-'5 M incubated for 48 hrs by SRB assay relative to control; type: functional
IGROV-1 = experiment: Antitumor activity against human IGROV1 cells assessed as growth inhibition at 10-'5 M incubated for 48 hrs by SRB assay relative to control; type: functional
BT-549 = experiment: Antitumor activity against human BT549 cells assessed as growth inhibition at 10-'5 M incubated for 48 hrs by SRB assay relative to control; type: functional
HCT-116 = experiment: Antitumor activity against human HCT116 cells assessed as growth inhibition at 10-'5 M incubated for 48 hrs by SRB assay relative to control; type: functional
[4] = target: MAP kinase-activated protein kinase 3 (Homo sapiens) (UniProt Q16644); experiment: Inhibition of human MAPKAPK3 using KKLNRTLSVA as substrate at 20 uM in presence of [gamma-33P]-ATP incubated for 2 hrs by hotspot kinase assay relative to control
MAP kinase-activated protein kinase 3 (Homo sapiens), sequence (Q16644 whole entry, looked up): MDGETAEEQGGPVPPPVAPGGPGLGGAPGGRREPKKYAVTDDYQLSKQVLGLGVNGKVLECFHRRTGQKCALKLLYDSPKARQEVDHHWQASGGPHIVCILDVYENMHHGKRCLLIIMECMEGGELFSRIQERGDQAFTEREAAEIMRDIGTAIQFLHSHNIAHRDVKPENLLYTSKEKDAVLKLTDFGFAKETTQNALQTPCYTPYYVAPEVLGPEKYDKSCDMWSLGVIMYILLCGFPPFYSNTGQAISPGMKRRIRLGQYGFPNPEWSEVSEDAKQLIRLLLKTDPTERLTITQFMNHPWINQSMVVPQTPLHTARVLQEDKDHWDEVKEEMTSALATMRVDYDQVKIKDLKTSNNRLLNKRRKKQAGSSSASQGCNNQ

[5] = target: Proto-oncogene tyrosine-protein kinase ROS (Homo sapiens) (UniProt P08922); experiment: Inhibition of human ROS/ROS1 using KKKSPGEYVNIEFG as substrate at 20 uM in presence of [gamma-33P]-ATP incubated for 2 hrs by hotspot kinase assay relative to control
Proto-oncogene tyrosine-protein kinase ROS (Homo sapiens), sequence (P08922 whole entry): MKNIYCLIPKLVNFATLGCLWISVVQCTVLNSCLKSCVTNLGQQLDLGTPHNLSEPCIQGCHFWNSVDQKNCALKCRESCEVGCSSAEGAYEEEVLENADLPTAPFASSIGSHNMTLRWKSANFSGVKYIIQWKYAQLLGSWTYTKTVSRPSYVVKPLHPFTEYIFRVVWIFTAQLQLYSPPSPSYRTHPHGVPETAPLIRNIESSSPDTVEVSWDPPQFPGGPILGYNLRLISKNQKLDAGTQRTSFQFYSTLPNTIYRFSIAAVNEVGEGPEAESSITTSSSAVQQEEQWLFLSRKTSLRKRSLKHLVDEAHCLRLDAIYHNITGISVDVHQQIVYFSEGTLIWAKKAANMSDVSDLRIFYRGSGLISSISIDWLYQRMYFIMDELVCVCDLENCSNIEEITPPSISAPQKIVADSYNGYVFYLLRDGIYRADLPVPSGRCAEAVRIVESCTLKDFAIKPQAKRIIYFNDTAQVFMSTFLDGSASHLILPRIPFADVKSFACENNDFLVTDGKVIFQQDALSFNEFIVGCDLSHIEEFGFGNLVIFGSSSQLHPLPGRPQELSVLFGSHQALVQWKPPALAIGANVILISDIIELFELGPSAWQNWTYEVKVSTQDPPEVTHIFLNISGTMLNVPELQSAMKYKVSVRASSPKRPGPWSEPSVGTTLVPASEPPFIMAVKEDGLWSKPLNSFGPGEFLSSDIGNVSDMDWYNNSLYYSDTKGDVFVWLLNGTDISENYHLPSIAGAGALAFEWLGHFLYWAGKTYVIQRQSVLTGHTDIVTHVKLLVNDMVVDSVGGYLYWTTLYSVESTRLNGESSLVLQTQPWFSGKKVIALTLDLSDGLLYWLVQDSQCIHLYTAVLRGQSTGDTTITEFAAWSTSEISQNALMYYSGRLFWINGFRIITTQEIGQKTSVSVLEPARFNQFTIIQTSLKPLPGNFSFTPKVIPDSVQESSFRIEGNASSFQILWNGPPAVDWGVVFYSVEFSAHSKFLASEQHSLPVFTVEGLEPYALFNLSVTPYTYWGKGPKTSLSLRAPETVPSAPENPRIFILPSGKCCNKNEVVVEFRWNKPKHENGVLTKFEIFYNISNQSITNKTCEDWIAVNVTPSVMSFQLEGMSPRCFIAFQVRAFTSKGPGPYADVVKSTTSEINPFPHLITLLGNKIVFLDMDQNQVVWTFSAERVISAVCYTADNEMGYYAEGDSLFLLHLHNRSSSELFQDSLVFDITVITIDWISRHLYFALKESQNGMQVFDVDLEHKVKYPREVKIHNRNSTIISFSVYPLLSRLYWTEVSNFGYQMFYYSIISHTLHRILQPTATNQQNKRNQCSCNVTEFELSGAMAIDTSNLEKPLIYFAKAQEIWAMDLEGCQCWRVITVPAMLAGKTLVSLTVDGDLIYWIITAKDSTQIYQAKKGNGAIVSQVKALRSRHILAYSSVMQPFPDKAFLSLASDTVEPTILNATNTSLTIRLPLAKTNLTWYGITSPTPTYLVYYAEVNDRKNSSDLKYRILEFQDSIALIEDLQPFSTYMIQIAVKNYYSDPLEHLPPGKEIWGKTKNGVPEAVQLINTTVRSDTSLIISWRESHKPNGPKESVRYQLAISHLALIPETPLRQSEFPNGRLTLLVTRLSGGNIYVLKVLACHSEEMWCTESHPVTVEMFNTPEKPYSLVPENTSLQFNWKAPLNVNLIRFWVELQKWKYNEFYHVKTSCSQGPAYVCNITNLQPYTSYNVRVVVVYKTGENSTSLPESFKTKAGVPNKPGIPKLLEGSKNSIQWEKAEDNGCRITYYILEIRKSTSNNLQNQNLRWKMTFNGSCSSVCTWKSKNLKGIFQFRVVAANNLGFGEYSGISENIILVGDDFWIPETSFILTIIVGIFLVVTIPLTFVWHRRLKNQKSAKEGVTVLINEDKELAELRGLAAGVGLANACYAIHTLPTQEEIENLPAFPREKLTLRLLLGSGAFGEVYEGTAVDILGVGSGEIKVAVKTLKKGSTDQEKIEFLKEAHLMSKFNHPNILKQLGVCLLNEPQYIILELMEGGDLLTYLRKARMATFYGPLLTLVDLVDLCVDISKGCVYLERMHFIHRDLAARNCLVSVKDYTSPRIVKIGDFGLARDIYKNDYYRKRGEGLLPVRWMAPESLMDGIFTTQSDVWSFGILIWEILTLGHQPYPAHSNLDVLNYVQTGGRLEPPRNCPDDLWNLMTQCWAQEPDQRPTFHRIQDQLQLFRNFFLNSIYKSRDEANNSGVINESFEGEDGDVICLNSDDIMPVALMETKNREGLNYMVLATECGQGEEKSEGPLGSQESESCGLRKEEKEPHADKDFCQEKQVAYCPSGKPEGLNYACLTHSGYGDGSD

[6] = target: Calcium/calmodulin-dependent protein kinase kinase 2 (Homo sapiens) (UniProt Q96RR4); experiment: Inhibition of human CAMKK2 using MBP as substrate at 20 uM in presence of [gamma-33P]-ATP incubated for 2 hrs by hotspot kinase assay relative to control
Calcium/calmodulin-dependent protein kinase kinase 2 (Homo sapiens), sequence (Q96RR4 2-588 limits assumed): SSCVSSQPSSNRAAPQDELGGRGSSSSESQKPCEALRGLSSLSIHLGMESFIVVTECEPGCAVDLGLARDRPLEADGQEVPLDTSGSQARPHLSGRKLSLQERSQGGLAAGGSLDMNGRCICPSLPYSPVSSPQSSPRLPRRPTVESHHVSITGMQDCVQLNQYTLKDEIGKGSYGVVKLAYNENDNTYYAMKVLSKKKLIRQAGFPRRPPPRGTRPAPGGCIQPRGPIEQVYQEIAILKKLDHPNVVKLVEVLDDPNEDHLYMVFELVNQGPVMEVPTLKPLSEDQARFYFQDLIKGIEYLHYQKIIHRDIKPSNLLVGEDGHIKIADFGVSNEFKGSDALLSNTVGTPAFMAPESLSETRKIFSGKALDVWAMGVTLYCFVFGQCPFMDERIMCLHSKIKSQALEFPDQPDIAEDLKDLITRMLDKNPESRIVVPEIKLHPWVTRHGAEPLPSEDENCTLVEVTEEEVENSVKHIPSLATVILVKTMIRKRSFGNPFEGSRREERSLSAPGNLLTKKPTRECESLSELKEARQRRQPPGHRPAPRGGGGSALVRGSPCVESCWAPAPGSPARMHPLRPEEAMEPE

M14 = experiment: Antitumor activity against human M14 cells assessed as growth inhibition at 10-'5 M incubated for 48 hrs by SRB assay relative to control; type: functional
[7] = target: Dual specificity testis-specific protein kinase 1 (Homo sapiens) (UniProt Q15569); experiment: Inhibition of human TESK1 using cofilin as substrate at 20 uM in presence of [gamma-33P]-ATP incubated for 2 hrs by hotspot kinase assay relative to control
Dual specificity testis-specific protein kinase 1 (Homo sapiens), sequence (Q15569 whole entry, looked up): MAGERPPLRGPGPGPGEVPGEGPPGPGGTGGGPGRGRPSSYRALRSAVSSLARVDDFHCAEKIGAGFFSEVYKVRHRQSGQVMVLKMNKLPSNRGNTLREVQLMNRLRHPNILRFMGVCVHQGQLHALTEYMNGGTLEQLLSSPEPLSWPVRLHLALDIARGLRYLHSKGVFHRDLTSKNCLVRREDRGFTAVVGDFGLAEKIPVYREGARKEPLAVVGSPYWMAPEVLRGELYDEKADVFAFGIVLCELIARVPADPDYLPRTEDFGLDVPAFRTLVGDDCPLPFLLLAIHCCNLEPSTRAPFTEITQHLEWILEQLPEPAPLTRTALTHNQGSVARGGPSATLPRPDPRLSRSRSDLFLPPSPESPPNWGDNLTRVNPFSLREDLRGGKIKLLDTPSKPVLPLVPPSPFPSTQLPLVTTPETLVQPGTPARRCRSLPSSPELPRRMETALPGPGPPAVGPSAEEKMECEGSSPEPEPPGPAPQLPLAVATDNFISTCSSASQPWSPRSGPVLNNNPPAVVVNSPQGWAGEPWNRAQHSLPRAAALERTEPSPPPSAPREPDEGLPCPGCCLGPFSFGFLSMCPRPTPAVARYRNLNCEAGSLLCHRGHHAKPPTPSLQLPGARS

[8] = target: Serine/threonine-protein kinase VRK2 (Homo sapiens) (UniProt Q86Y07); experiment: Inhibition of human VRK2 using casein as substrate at 20 uM in presence of [gamma-33P]-ATP incubated for 2 hrs by hotspot kinase assay relative to control
Serine/threonine-protein kinase VRK2 (Homo sapiens), sequence (Q86Y07 whole entry): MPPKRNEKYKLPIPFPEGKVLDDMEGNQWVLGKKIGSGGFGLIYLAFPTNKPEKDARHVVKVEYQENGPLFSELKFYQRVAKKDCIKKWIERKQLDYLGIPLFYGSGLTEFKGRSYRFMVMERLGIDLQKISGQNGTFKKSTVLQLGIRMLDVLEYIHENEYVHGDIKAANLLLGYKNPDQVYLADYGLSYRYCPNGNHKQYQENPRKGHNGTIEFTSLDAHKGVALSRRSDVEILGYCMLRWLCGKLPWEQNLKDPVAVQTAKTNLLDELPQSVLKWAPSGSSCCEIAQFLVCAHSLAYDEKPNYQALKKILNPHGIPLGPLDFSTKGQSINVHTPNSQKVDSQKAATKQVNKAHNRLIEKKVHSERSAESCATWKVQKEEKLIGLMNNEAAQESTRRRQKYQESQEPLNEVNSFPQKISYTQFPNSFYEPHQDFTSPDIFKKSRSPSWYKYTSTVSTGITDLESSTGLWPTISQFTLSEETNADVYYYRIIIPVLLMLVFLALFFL

786-0 = experiment: Antitumor activity against human 786-O cells assessed as growth inhibition at 10-'5 M incubated for 48 hrs by SRB assay relative to control; type: functional

T1 sequence (Q96GD4 whole entry): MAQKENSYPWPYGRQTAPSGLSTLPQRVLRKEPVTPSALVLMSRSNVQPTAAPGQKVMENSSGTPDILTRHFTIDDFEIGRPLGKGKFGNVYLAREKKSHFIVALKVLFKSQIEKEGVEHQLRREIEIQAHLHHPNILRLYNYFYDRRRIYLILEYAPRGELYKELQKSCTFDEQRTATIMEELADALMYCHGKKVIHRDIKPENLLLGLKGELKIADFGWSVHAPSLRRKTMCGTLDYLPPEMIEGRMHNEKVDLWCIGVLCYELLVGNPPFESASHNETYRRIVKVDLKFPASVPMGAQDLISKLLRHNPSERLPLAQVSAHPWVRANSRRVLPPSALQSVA

| SMILES | IC50 (Aurora kinase B [1]) [µM] | IC50 (Aurora kinase A) [µM] | growth inhibition (GI) (UO-31) | inhibition [2] [%] | inhibition (Aurora kinase B [3]) [%] | growth inhibition (GI) (A498) | growth inhibition (GI) (CAKI-1) | growth inhibition (GI) (SNB-75) | growth inhibition (GI) (HCT-116) [%] | also measured |
| --- | --- | --- | --- | --- | --- | --- | --- | --- | --- | --- |
| CCOC(=O)c1cnc2ccc(Br)cc2c1Nc1cccc(NS(C)(=O)=O)c1 | 1.35 | 1.77 | >=20% | 66 | 91.6 | >=20% | – | – | – | – |
| CCOC(=O)c1cnc2ccccc2c1Nc1cccc(S(=O)(=O)NC)c1 | – | – | >=20% | 6.15 | 33.7 | >=20% | >=20% | >=20% | – | growth inhibition (GI) (MCF7): >=20%; growth inhibition (GI) (T47D): >=20%; growth inhibition (GI) (MOLT-4): >=20%; growth inhibition (GI) (Hs-578T): >=20%; growth inhibition (GI) (KM12): >=20%; growth inhibition (GI) (UACC-62): >=20%; growth inhibition (GI) (MDA-MB-231): >=20%; growth inhibition (GI) (SK-MEL-5): >=20%; growth inhibition (GI) (HOP-62): >=20%; growth inhibition (GI) (IGROV-1): >=20% |
| CCOC(=O)c1cnc2ccc(C)cc2c1Nc1cccc(S(N)(=O)=O)c1 | 8.33 | – | – | 14.9 | 57.7 | – | – | – | >50 | growth inhibition (GI) (BT-549): >=20% |
| CCOC(=O)c1cnc2ccc(Br)cc2c1Nc1cccc(S(N)(=O)=O)c1 | 1.62 | – | – | 26.9 | 87.4 | >=20% | >=20% | >=20% | – | – |
| CCOC(=O)c1cnc2ccccc2c1Nc1cccc(S(N)(=O)=O)c1 | 12.5 | 16.6 | >=20% | 64.3 | 60.9 | – | >=20% | >=20% | – | – |
| CCOC(=O)c1cnc2cc(Cl)cc(Cl)c2c1Nc1cccc(S(N)(=O)=O)c1 | 6.89 | 7.64 | – | 61.3 | 71.8 | >=20% | – | – | >50 | inhibition [4]: 3.1%; inhibition [5]: 20.1%; inhibition [6]: 33.7%; growth inhibition (GI) (M14): >=20%; inhibition [7]: 4.01%; inhibition [8]: 31.8%; growth inhibition (GI) (786-0): >50% |
